Results taken from patent publication US20250221930A1, “A COMPOSITION COMPRISING LIPID NANOPARTICLES AND AN ANTIFUNGAL POLYENE” (INSTITUT NATIONAL DE LA SANTÉ ET DE LA RECHERCHE MÉDICALE, priority 2022, published 2025).
In brackets after ≈: the same amount, converted by molar mass.

Tests used:
L. ramosa = test: Checkerboard MICs of AmB, ISA and PEG15HS in solution; assay type: cell-based, Lichtheimia ramosa; details: Lichtheimia ramosa, RPMI, 24 h at 37° C.
Description: (§1) AmB minimum inhibitory concentrations (MIC) of each strain of Mucorales was measured in RPMI in the presence of different concentrations of ISA or PEG15HS as described by the EUCAST broth microdilution antifungal susceptibility test methodology with modification for the checkerboard procedure. Checkerboards were performed by adding 100 μL of two-fold dilutions of AmB (0.008 to 4 mg/L) and ISA (0.008 to 4 mg/L) or PEG15HS (0.04 to 2752 mg/L) in 96 well plates. One hundred microliters of a spore suspension at a concentration of 105 spores/mL were added to the wells, and the plates were incubated for 24 h at 37° C. […] Three experiments were performed for each strain.
(§2) AmB MIC of each strain of Mucorales was measured in RPMI in the presence of different concentrations of ISA and a constant concentration of PEG15HS (100 times the concentration of AmB) as described by the EUCAST broth microdilution antifungal susceptibility test methodology with modification for the checkerboard procedure. Checkerboards were performed by adding 100 μL of two-fold dilutions of AmB (0.008 to 4 mg/L)+PEG15HS (0.8 to 400 mg/L) and ISA (0.008 to 4 mg/L) in 96 well plates. One hundred microliters of a spore suspension at a concentration of 105 spores/mL were added to the wells, and the plates were incubated for 24 h at 37° C. […] Three experiments were performed for each strain. […]

Rhizopus arrhizus 1 [1] = test: as above; assay type: cell-based; details: Rhizopus arrhizus, 1, RPMI, 24 h at 37° C.
Description: as §1, §2

Aspergillus fumigatus = test: EUCAST MICs of AmB, ISA, AmB-loaded LNPs and AmB-ISA-loaded LNPs; assay type: cell-based; details: 48 h at 37° C.
Description: (§3) Briefly, a mass (80-120 mg) of an oil phase consisting of triglycerides (Labrafac®, or tributyrin in different mass ratios, i.e. 100% Labrafac® to 100% tributyrin) was supplemented with AmB (0,025 to 0.2 mg) and ISA (0.25 to 5 mg) and then mixed with 80 to 120 mg of PEG15HS (Solutol HS15®) and 500 to 800 μl of water to form an oil-in-water emulsion. This emulsion was then heated to 85° C., to obtain a water-in-oil emulsion, and then cooled to 40° C. Three such temperature cycles were performed and the system was then fast cooled to 4° C. The formulated nanoparticles were then characterized by size distribution and mean zeta potential measurements. Examples of formulations of LNPs loaded with AmB and AmB-ISA are detailed in Table 5:
Two reference strains (ATCC 16424 and ATCC 204305) and a clinical azole-resistant strain (AfR2) of Aspergillus fumigatus were used.
(§4) MICs of AmB in solution, ISA in solution, AmB-loaded LNPs, and AmB-ISA-loaded LNPs were evaluated according to the European Committee on Antimicrobial Susceptibility Testing (EUCAST) guidelines. Briefly, MICs were determined by adding 100 μL of two-fold dilutions of AmB in solution, ISA in solution, AmB-LNPs or AmB-ISA-LNPs (0.008 to 4 mg/L) in 96-well plates. One hundred microliters of a spore suspension at a concentration of 105 spores/mL were added to the wells, and the plates were incubated for 24 h (Mucorales) or 48 h (A. fumigatus) at 37° C. […] Three experiments were performed for each strain.

L. corymbifera = test: Checkerboard MICs of AmB, ISA and PEG15HS in solution; assay type: cell-based, Lichtheimia corymbifera; details: Lichtheimia corymbifera, RPMI, 24 h at 37° C.
Description: as §1, §2

Lichtheimia corymbifera = test: EUCAST MICs of AmB, ISA, AmB-loaded LNPs and AmB-ISA-loaded LNPs; assay type: cell-based; details: Lichtheimia corymbifera; 24 h at 37° C.
Description: as §3
(§5) Rhizopus arrhizus 1, Lichtheimia corymbifera and Lichtheimia ramosa strains were used. These correspond to the most frequently encountered species in human mucormycosis. These three strains were isolated from patients suffering from pulmonary mucormycosis.
as §4

Rhizopus arrhizus 1 [2] = test: as above; assay type: cell-based; details: Rhizopus arrhizus, 1; 24 h at 37° C.
Description: as §3, §5, §4

Lichtheimia ramosa = test: as above; assay type: cell-based; details: Lichtheimia ramosa; 24 h at 37° C.
Description: as §3, §5, §4

C[C@@H](c1nc(-c2ccc(C#N)cc2)cs1)[C@](O)(Cn1cncn1)c1cc(F)ccc1F [ISA, isavuconazole]
MIC (L. ramosa): 4 µg/mL | MIC (Rhizopus arrhizus 1 [1]): 1 µg/mL | MIC (Aspergillus fumigatus; ATCC16424, Aspergillus fumigatus 16 (ATCC 16424)): 0.5 µg/mL (≈ 1.14 µM) | MIC (Aspergillus fumigatus; Aspergillus fumigatus, ATCC204305, A. fumigatus 20 (ATCC 204305)): 0.5 µg/mL (≈ 1.14 µM) | MIC (Aspergillus fumigatus; Aspergillus fumigatus, A. fumigatus R2 (clinical azole-resistant strain AfR2)): > 4 µg/mL | MIC (L. corymbifera): 4 µg/mL | MIC (Lichtheimia corymbifera): 4 µg/mL (≈ 9.14 µM) | MIC (Rhizopus arrhizus 1 [2]): 1 µg/mL (≈ 2.29 µM) | MIC (Lichtheimia ramosa): 4 µg/mL (≈ 9.14 µM)
